Results reported in patent US11702415B2, “Crystalline hydrate of a JAK inhibitor compound” (THERAVANCE BIOPHARMA R&D IP, LLC, priority 2020, dated 2023).

Assays:
[1] = Stability study at accelerated temperature and relative humidity (HPLC); format: physicochemical; settings: samples of Form I
[2] = Pharmacokinetics in plasma and lung in mouse; format: in vivo; settings: single oral aspiration, 0.2 mg/mL 50 μL
Protocol: Plasma and lung concentrations of test compound and ratio thereof were determined in the following manner. BALB/c mice from Charles River Laboratories were used in the assay. […] At various time points (typically 0.167, 2, 6, 24 hr) post dosing, blood samples were removed via cardiac puncture and intact lungs were excised from the mice.

Lung S9 metabolism = format: in vitro ADME, human; settings: for Compound Remaining at 60 min: human lung S9, 1 μM compound, 1 mg/mL protein, NADPH and PAPS; for Sulfate Appearance: human lung S9, qualitative, O-sulfate metabolite peak
Protocol: The in vitro metabolic stability of compounds 1 and C-1 were evaluated in human lung S9 fraction (1 μM compound; 1 mg/mL S9 protein). The time 0, 15, 30, and 60 minute samples were analyzed for parent compound by high resolution LC-MS/MS. Lung S9 fractions from human (lot 1410245) were purchased from XenoTech LLC (Lenexa, Kans.). NADPH (Sigma Aldrich, N1630) and 3-phosphoadenosine 5-phosphosulfate (PAPS) (Sigma Aldrich, A1651) were purchased from Sigma Aldrich (St. Louis, Mo.). Acetonitrile and water were obtained from VWR (Radnor, Pa.) and were of HPLC grade or better. Raloxifene and formic acid was purchased from Sigma Aldrich (St. Louis, Mo.). Lung S9 incubations were performed in a water bath at 37° C. in a 96-well polypropylene plate. Lung S9 solutions consisted of 100 mM potassium phosphate buffered to pH 7.4 (BD Biosciences, Woburn, Mass.) supplemented with 1 mM NADPH (Sigma-Aldrich, St. Louis, Mo.), 3 mM magnesium chloride (Sigma Aldrich, M1028) and in the presence of 100 μM PAPS (Sigma-Aldrich, St. Louis, Mo.) cofactor, with final incubation protein concentrations of 1 mg/mL. 10 mM DMSO stocks of Raloxifene (n=1) and compound (n=1) were diluted in buffer and spiked into the incubations to yield 1 μM substrate concentrations ([…]). Incubation volumes consisted of 400 μL and time points were taken at 0, 15, 30, and 60 minutes by the removal of a 70 μL aliquot and dilution into 140 μL acetonitrile (0% formic acid). All samples were centrifuged at 2250 g for 10 minutes at 5° C. Supernatant (50 μL) was taken from the centrifuged samples and diluted into 100 μL HPLC water containing internal standard. The samples were run on a Dionex Ultimate 3000 Auto sampler and analyzed using a Thermo Q-Exactive High Resolution Mass Spectrometer (Thermo, Waltham, Mass.) in Full Scan mode in conjunction with an Atlantis T3 column 3 μM-2.1×50 mm (Waters Inc., 186003717). Mobile Phase A consisted of Water+0.2% formic acid and Mobile Phase B consisted of acetonitrile+0.2% formic acid. Peak integration was accomplished using Gubbs GMSU software (Gubbs Inc., Alpharetta, Ga.). For each sample, peak area ratios were calculated by dividing the analyte peak area by the internal standard peak area. For each incubation, the peak area ratios of the analytes in each t0 was set to 100%, and the peak areas ratios from the 60-minute samples were converted to percentages remaining relative to the corresponding t0. Determination of sulfate metabolite formation was made qualitatively by observation of early-eluting peak in the parent ion channel which, based on historical internal data, corresponded to the O-sulfate metabolite of each parent compound.

[3] = test system: IL-13 induced pSTAT6 in lung tissue; assay: Murine model of IL-13 induced pSTAT6 induction in lung tissue; format: in vivo; settings: mouse lung, oral aspiration 1 mg/mL 50 μL, IL-13 challenge 4 h after dose
Protocol: IL-13 binds to cell surface receptors activating members of the Janus family of kinases (JAK) which then phosphorylate STAT6 and subsequently activates further transcription pathways. In the described model, a dose of IL-13 was delivered locally into the lungs of mice to induce the phosphorylation of STAT6 (pSTAT6) which is then measured as the endpoint.
Activity in the model is evidenced by a decrease in the level of pSTAT6 present in the lungs of treated animals at 5 hours compared to the vehicle treated, IL-13 challenged control animals. The difference between the control animals which were vehicle-treated, IL-13 challenged and the control animals which were vehicle-treated, vehicle challenged dictated the 0% and 100% inhibitory effect, respectively, in any given experiment.

[4] = Dynamic moisture sorption assessment; format: physicochemical
Protocol: Dynamic moisture sorption (DMS) measurement was performed using a VTI atmospheric microbalance, SGA-100 system (VTI Corp., Hialeah, Fla. 33016). A weighed sample was used and the humidity was lowest possible value (close to 0% RH) at the start of the analysis. The DMS analysis consisted of an initial drying step (˜0% RH) for 16 hours, followed by two cycles of sorption and desorption with a scan rate of 5% RH/step over the humidity range of 5% RH to 90% RH. The DMS run was performed isothermally at 25° C.

[5] = test system: hospitalized patients with COVID-19; settings: in combination with remdesivir versus placebo with remdesivir, within 29 days after initiating treatment; cited from earlier work
[6] = test system: patients with steroid-refractory acute or chronic GVHD; settings: 95 patients, salvage therapy, including lung GVHD; cited from earlier work

CCc1cc(O)ccc1-c1ccc2c(-c3nc4c([nH]3)CN(C(C)C)[C@H](C(=O)N3CC(N(C)C)C3)C4)n[nH]c2c1 [Compound 1, (S)-(3-(dimethylamino)azetidin-1-yl)(2-(6-(2-ethyl-4-hydroxyphenyl)-1H-indazol-3-yl)-5-isopropyl-4,5,6,7-tetrahydro-3H-imidazo[4,5-c]pyridin-6-yl)methanone]
Compound 1 content by HPLC ([1]; T = 0): 97.5% a/a
Compound 1 content by HPLC ([1]; T = 1 month, 40° C./75% RH): 97.5% a/a
Compound 1 content by HPLC ([1]; T = 3 month, 25° C./60% RH): 97.6% a/a
Compound 1 content by HPLC ([1]; T = 3 month, 40° C./75% RH): 97.5% a/a
Lung Tissue AUC(0-24) [2]: 54.5 µg·h/g
sulfation metabolism compared to fluoro analog C-1 (Lung S9 metabolism; human lung S9): significantly less sulfation metabolism
Compound Remaining at 60 min (Lung S9 metabolism): 81%
Sulfate Appearance (Lung S9 metabolism): Yes
pSTAT6 inhibition at 5 hours [3]: 75

CCc1cc(O)c(F)cc1-c1ccc2c(-c3nc4c([nH]3)CN(C(C)C)[C@H](C(=O)N3CC(N(C)C)C3)C4)n[nH]c2c1 [Compound C-1, (S)-(3-(dimethylamino)azetidin-1-yl)(2-(6-(2-ethyl-5-fluoro-4-hydroxyphenyl)-1H-indazol-3-yl)-5-isopropyl-4,5,6,7-tetrahydro-3H-imidazo[4,5-c]pyridin-6-yl)methanone, reference compound]
Compound Remaining at 60 min (Lung S9 metabolism): 6%
Sulfate Appearance (Lung S9 metabolism): Yes

CCc1cc(O)ccc1-c1ccc2c(-c3nc4c([nH]3)CN(C(C)C)[C@H](C(=O)N3CC(N(C)C)C3)C4)n[nH]c2c1 [Form I, (S)-(3-(dimethylamino)azetidin-1-yl)(2-(6-(2-ethyl-4-hydroxyphenyl)-1H-indazol-3-yl)-5-isopropyl-4,5,6,7-tetrahydro-3H-imidazo[4,5-c]pyridin-6-yl)methanone hydrate Form I]
hygroscopicity ([4]; dynamic moisture sorption, 25° C.): moderately hygroscopic
total moisture uptake ([4]; relative humidity between 0% and 90% at room temperature): about 5.3%

CCS(=O)(=O)N1CC(CC#N)(n2cc(-c3ncnc4[nH]ccc34)cn2)C1 [baricitinib]
time to recovery [5]: reduce time to recovery

N#CC[C@H](C1CCCC1)n1cc(-c2ncnc3[nH]ccc23)cn1 [ruxolitinib]
clinical response in GVHD patients [6]: complete or partial response to ruxolitinib in the majority of patients
